The values below come from US9926297B2, “Bicyclic AZA compounds as muscarinic M1 receptor and/or M4 receptor agonists” (Heptares Therapeutics Limited, priority 2014, dated 2018).

Usually Emax stands for the greatest response seen or fitted, relative to the assay's reference.

In assay [1] the target is T1, human muscarinic M4 receptor (Homo sapiens, UniProt P08173).
T1 construct: expressed in transfected cells
T1 sequence (P08173 1-479): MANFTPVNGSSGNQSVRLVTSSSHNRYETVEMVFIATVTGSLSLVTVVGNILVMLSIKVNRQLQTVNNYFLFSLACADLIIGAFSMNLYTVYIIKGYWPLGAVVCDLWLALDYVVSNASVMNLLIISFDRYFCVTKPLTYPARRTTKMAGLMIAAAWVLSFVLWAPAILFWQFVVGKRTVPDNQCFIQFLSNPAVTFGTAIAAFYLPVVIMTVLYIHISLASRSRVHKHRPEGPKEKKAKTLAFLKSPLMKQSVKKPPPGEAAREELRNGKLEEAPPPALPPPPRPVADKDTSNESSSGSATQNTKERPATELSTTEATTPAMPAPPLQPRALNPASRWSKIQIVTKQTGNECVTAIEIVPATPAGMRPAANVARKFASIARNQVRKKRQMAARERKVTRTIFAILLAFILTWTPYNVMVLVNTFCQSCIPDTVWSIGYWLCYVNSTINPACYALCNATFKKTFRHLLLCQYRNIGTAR
Kind of assay: Alphascreen Surefire phospho-ERK1/2 functional assay, M4. Format: cell-based. To be noted: for EC50: phospho-ERK1/2, * = variable results, read-out: pEC50 M4 (converted); for Emax: CHO, read-out: % Emax cf. ACh, M4, CHO cells stably expressing human M4. (In general: In Alpha technology, singlet oxygen from a donor bead excites a nearby acceptor bead.)

Assay [2] addresses T2, human muscarinic M2 receptor (Homo sapiens, UniProt P08172).
T2 sequence (P08172 1-466): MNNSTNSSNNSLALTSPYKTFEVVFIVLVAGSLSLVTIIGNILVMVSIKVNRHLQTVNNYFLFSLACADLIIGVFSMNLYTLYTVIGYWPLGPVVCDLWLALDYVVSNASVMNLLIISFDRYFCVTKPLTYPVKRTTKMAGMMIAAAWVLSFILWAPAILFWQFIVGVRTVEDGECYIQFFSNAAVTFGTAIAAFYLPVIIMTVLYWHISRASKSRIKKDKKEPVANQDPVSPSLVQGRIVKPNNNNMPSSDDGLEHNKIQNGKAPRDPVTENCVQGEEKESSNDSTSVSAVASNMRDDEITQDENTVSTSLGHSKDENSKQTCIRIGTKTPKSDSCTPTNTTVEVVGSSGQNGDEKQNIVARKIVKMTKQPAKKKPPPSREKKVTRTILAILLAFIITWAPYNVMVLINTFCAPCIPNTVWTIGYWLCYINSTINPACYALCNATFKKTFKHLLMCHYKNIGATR
Kind of assay: Alphascreen Surefire phospho-ERK1/2 functional assay, M2. To be noted: for Emax: CHO, read-out: % Emax cf. ACh, M2, CHO cells stably expressing human M2.

For assay [3], the target named is T3, human muscarinic M1 receptor (Homo sapiens, UniProt P11229).
T3 sequence (P11229 1-460): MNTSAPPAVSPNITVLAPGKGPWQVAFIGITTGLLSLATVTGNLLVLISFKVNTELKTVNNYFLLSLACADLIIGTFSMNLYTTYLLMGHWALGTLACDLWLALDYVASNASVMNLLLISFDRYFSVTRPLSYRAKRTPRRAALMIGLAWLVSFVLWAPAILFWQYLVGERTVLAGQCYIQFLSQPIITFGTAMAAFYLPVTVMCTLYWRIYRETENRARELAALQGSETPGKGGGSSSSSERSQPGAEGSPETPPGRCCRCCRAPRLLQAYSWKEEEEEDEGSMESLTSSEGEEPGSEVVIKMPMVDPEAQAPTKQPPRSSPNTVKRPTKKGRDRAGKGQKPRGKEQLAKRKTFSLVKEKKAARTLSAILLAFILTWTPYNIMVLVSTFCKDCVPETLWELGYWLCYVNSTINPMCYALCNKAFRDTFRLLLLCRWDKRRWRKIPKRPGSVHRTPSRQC
Kind of assay: Alphascreen Surefire phospho-ERK1/2 functional assay, M1. Format: cell-based. To be noted: for EC50: phospho-ERK1/2, * = variable results, read-out: pEC50 M1 (converted); for Emax: CHO, read-out: % Emax cf. ACh, M1, CHO cells stably expressing human M1.

The target in assay [4] is human muscarinic M3 receptor (Homo sapiens, UniProt P20309). In words: Alphascreen Surefire phospho-ERK1/2 functional assay, M3. To be noted: for Emax: CHO, read-out: % Emax cf. ACh, M3, CHO cells stably expressing human M3; for EC50: pEC50 M3, CHO cells stably expressing human M3, phospho-ERK1/2, * = variable results.
human muscarinic M3 receptor, sequence (P20309 whole entry): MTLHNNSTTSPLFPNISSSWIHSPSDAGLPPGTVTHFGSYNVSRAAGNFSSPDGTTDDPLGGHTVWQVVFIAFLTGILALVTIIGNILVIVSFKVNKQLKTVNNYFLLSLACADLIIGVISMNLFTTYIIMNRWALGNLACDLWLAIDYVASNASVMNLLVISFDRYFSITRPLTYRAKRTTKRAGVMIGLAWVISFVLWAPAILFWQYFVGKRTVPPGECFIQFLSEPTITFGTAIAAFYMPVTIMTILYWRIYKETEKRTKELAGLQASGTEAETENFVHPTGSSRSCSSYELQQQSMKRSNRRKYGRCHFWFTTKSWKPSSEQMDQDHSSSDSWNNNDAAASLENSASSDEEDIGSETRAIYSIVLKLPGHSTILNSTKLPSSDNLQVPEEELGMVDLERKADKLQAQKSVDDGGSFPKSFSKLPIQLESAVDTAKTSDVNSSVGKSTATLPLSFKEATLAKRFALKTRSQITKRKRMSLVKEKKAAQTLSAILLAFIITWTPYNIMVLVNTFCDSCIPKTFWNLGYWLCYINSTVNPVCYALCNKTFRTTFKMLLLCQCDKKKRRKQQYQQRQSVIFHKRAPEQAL
The mark [5] stands for this setting: CHO cells stably expressing human M4.
Setting [6] is: CHO cells stably expressing human M1.

Turning to `CCOC(=O)N1CCC2(CC(N3CCC([C@H]4CCCN4C(=O)OC)CC3)C2)C1` (single isomer, unassigned) [2-13 Isomer 2], the EC50 in assay [1] (setting [5]) was 158 nM; in assay [2], greater than 20000 nM; in assay [3] (setting [6]) it was 10000 nM; in assay [4], greater than 20000 nM. Also, the maximum response (Emax) in assay [1] (relative to ACh) stood at 57%; in assay [2] (relative to ACh), 7%; in assay [3] (relative to ACh), 69%; in assay [4] (relative to ACh) it was 24%.
For the compound `CCOC(=O)N1CCC2(CC(N3CCC([C@@H]4CCCN4C(=O)NCc4ccccn4)CC3)C2)C1` (single isomer, unassigned) [2-54 Isomer 1], the EC50 in assay [1] (setting [5]) is 15.8 nM; in assay [2], greater than 20000 nM; in assay [3] (setting [6]), greater than 20000 nM; in assay [4] it was greater than 20000 nM. Moreover, the “% Emax cf. ACh, M4” value in assay [1] (CHO cells stably expressing human M4, relative to ACh) stood at 45%. Also, the “% Emax cf. ACh, M2” value in assay [2] (CHO cells stably expressing human M2, relative to ACh) was determined as 50%. Moreover, the “% Emax cf. ACh, M1” value in assay [3] (CHO cells stably expressing human M1, relative to ACh) worked out at 1%. In addition, in assay [4] (CHO cells stably expressing human M3, relative to ACh), the “% Emax cf. ACh, M3” value worked out at 0%.
As for `CCOC(=O)N1CCC2(CC(N3CCC(c4ccon4)CC3)C2)C1` (single isomer, unassigned) [1-43 Isomer 2, ethyl 2-[4-(1,2-oxazol-3-yl)piperidin-1-yl]-6-azaspiro[3.4]octane-6-carboxylate], the EC50 in assay [1] (setting [5]) is 31.6 nM; in assay [2] it was greater than 20000 nM; in assay [3] (setting [6]), 158 nM; in assay [4], greater than 20000 nM. For the same compound, the Emax in assay [1] (relative to ACh) came out at 61%; in assay [2] (relative to ACh), 7%; in assay [3] (relative to ACh), 32%; in assay [4] (relative to ACh), 8%.
As to `CCOC(=O)N1CCC2(CC(N3CCC(N4CCC[C@]4(C)C(=O)OC)CC3)C2)C1` (single isomer, unassigned) [2-95 Isomer 2], the EC50 in assay [1] (setting [5]) is 63.1 nM; in assay [2], greater than 20000 nM; in assay [3] (setting [6]), greater than 20000 nM; in assay [4], greater than 20000 nM. The Emax amounted to 49% in assay [1] (relative to ACh), 16% in assay [2] (relative to ACh), 19% in assay [3] (relative to ACh) and 9% in assay [4] (relative to ACh).
With `CCOC(=O)N1CCC2(CC(N3CCC(c4ccc[nH]c4=O)CC3)C2)C1` (single isomer, unassigned) [3-2 Isomer 1, ethyl 2-[4-(2-oxo-1,2-dihydropyridin-3-yl)piperidin-1-yl]-6-azaspiro[3.4]octane-6-carboxylate], the EC50 was 6.31 nM in assay [1] (setting [5]), greater than 20000 nM in assay [2], 31.6 nM in assay [3] (setting [6]) and greater than 20000 nM in assay [4]. Moreover, the Emax amounted to 115% in assay [1] (relative to ACh), 7% in assay [2] (relative to ACh), 97% in assay [3] (relative to ACh) and 0% in assay [4] (relative to ACh).
For the compound `CCOC(=O)N1CCC2(CC(N3CCC(n4nccn4)CC3)C2)C1` (single isomer, unassigned) [1-61 Isomer 2, ethyl 2-[4-(2H-1,2,3-triazol-2-yl)piperidin-1-yl]-6-azaspiro[3.4]octane-6-carboxylate], the EC50 in assay [1] (setting [5]) was 25.1 nM; in assay [2] it was greater than 20000 nM; in assay [3] (setting [6]), 316 nM; in assay [4] it was greater than 20000 nM. The maximal response (Emax) is 97% in assay [1] (relative to ACh), 1% in assay [2] (relative to ACh), 66% in assay [3] (relative to ACh) and 2% in assay [4] (relative to ACh).
Turning to `CCOC(=O)N1CCC2(CC(N3CCC(C4CCCN4C(=O)N(C)C)CC3)C2)C1` (single isomer, unassigned) [2-20 Isomer 2, ethyl 2-{4-[1-(dimethylcarbamoyl)pyrrolidin-2-yl]piperidin-1-yl}-6-azaspiro[3.4]octane-6-carboxylate], the EC50 in assay [1] (setting [5]) was 31.6 nM; in assay [2], greater than 20000 nM; in assay [3] (setting [6]), greater than 20000 nM; in assay [4], greater than 20000 nM. Moreover, the Emax in assay [1] (relative to ACh) came to 106%; in assay [2] (relative to ACh) it was 1%; in assay [3] (relative to ACh), 24%; in assay [4] (relative to ACh) it was 6%.
Take `CCOC(=O)N1CCC2(CC(N3CCC([C@H]4CCCN4C(=O)NC)CC3)C2)C1` (single isomer, unassigned) [2-18 Isomer 2]: the EC50 in assay [1] (setting [5]) is 79.4 nM; in assay [2], greater than 20000 nM; in assay [3] (setting [6]) it was greater than 20000 nM; in assay [4], greater than 20000 nM. The Emax in assay [1] (relative to ACh) was found to be 56%; in assay [2] (relative to ACh), 1%; in assay [3] (relative to ACh), 8%; in assay [4] (relative to ACh), 4%.
For the compound `CCOC(=O)N1CCC2(CC(N3CCC([C@@H]4CCCN4CC(=O)OC)CC3)C2)C1` (single isomer, unassigned) [2-72 Isomer 2], the EC50 in assay [1] (setting [5]) is 79.4 nM; in assay [2] it was greater than 20000 nM; in assay [3] (setting [6]) it was 794 nM; in assay [4], greater than 20000 nM. The Emax was 52% in assay [1] (relative to ACh), 13% in assay [2] (relative to ACh), 30% in assay [3] (relative to ACh) and 10% in assay [4] (relative to ACh).
As to `CCOC(=O)N1CCC2(CC(N3CCC([C@@H]4CCCN4C(=O)NC4CC4)CC3)C2)C1` (single isomer, unassigned) [2-29 Isomer 2], the EC50 is 15.8 nM in assay [1] (setting [5]), greater than 20000 nM in assay [2], 501 nM in assay [3] (setting [6]) and greater than 20000 nM in assay [4]. In addition, the Emax in assay [1] (relative to ACh) was 110%; in assay [2] (relative to ACh), 5%; in assay [3] (relative to ACh), 60%; in assay [4] (relative to ACh), 13%.
As to `CCNC(=O)N1CCCC1C1CCN(C2CC3(CCN(C(=O)OCC)C3)C2)CC1` (single isomer, unassigned) [2-19 Isomer 2, ethyl 2-{4-[1-(ethylcarbamoyl)pyrrolidin-2-yl]piperidin-1-yl}-6-azaspiro[3.4]octane-6-carboxylate], the EC50 is 7.94 nM in assay [1] (setting [5]), greater than 20000 nM in assay [2], 631 nM in assay [3] (setting [6]) and greater than 20000 nM in assay [4]. The Emax came to 113% in assay [1] (relative to ACh), 3% in assay [2] (relative to ACh), 44% in assay [3] (relative to ACh) and 10% in assay [4] (relative to ACh).
Take `CCOC(=O)N1CCC2(CC(N3CCC(N4CCSCC4)CC3)C2)C1` (single isomer, unassigned) [4-12 Isomer 2, ethyl 2-[4-(thiomorpholin-4-yl)piperidin-1-yl]-6-azaspiro[3.4]octane-6-carboxylate]: the EC50 in assay [1] (setting [5]) was 39.8 nM; in assay [2] it was greater than 20000 nM; in assay [3] (setting [6]), greater than 20000 nM; in assay [4] it was greater than 20000 nM. Also, the Emax in assay [1] (relative to ACh) amounted to 32%; in assay [2] (relative to ACh) it was 7%; in assay [3] (relative to ACh) it was 19%; in assay [4] (relative to ACh) it was 14%.
Regarding `COC(=O)N1CCC2(CC(N3CCC(c4nccs4)CC3)C2)C1` (single isomer, unassigned) [1-24 Isomer 2, methyl 2-[4-(1,3-thiazol-2-yl)piperidin-1-yl]-6-azaspiro[3.4]octane-6-carboxylate], the EC50 in assay [1] (setting [5]) is 25.1 nM; in assay [2], 6310 nM; in assay [3] (setting [6]) it was 251 nM; in assay [4], greater than 20000 nM. The Emax in assay [1] (relative to ACh) was found to be 78%; in assay [2] (relative to ACh), 32%; in assay [3] (relative to ACh), 102%; in assay [4] (relative to ACh), 0%.
